In ChEMBL document CHEMBL1201862, “PubChem BioAssay data set” (2004):
The source made the active and inactive calls.

What was measured:
[1] = biological target: T1, Mannose-6-phosphate isomerase (Homo sapiens, UniProt P34949); experiment: MPI enzyme activity inhibition – biochemical, fluorescence intensity, coupled assay, primary screen (AID 1209)
T1 sequence (P34949 whole entry): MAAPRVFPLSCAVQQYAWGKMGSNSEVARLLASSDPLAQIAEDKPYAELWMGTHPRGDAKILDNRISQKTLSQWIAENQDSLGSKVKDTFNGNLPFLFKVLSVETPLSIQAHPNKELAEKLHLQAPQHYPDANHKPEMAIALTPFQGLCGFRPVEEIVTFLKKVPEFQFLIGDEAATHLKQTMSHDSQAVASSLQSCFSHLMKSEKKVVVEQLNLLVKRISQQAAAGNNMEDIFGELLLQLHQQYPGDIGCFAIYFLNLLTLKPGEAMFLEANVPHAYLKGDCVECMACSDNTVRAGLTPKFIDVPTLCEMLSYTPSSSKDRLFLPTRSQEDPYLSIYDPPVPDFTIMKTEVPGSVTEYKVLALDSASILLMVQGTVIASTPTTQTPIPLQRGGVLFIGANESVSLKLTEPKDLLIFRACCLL

[2] = growth inhibition of yeast DHODH-expressing 3D7 parasites – SYBR Green, dry powder samples, dose response (AID 1159570); format: functional, cell-based;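 also: parasite growth measured after 72 hours of compound exposure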
[3] = P. falciparum Dd2 growth inhibitors, dose response, SYBR Green, cherry-picked samples (AID 1159567); format: functional, cell-based
[4] = Dd2 malaria parasite growth inhibition potency – SYBR Green, dry powder samples, dose response (AID 1159566); format: functional, cell-based;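 also: potency for growth inhibition with lower SYBR green DNA signal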
[5] = growth inhibition of PfATP4-mutant resistant parasites – NITD609-resistant line, SYBR Green, dry powder, dose response (AID 1159571); format: functional, cell-based;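 also: parasites synchronized at ring stage by sorbitol before testing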
[6] = biological target: Induced myeloid leukemia cell differentiation protein Mcl-1 (Homo sapiens, UniProt Q07820); format: functional
[7] = biological target: T2, Heat shock factor protein 1 (Mus musculus, UniProt P38532); experiment: enhancement of HSF1-driven luciferase signal – cell-based, NIH3T3, luminescence, dose retest, confirmation (AID 435004); format: functional;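 also: stress induced by proteasome inhibitor MG132 added 30 min after compound; luciferase reporter driven by HSF1 response element in NIH3T3 cells; actives raise luminescence as potentiators of the MG132 stress response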
T2 sequence (P38532 whole entry): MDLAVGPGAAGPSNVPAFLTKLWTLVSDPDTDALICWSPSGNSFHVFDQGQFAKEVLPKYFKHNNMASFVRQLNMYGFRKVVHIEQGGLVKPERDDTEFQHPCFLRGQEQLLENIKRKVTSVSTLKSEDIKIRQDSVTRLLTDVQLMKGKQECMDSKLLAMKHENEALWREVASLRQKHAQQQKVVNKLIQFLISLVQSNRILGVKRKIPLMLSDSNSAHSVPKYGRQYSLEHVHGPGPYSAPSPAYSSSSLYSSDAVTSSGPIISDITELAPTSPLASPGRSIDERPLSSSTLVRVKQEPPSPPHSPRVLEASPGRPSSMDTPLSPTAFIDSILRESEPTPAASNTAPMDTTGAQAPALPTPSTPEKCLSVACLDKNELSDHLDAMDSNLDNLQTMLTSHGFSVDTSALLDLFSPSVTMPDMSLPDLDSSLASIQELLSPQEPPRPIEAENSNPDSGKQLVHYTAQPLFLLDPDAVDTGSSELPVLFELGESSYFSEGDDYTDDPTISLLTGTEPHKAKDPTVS

[8] = A549 cell cytotoxicity, dose response, cytotoxicity control, plate reader, cherry-pick, antagonist series (AID 743412); format: functional, cell-based
[9] = blockers of bursicon-stimulated LGR2 cAMP reporter – cell-based, HEK293, CRE-luciferase reporter, cherry pick, set 2, dose response (AID 743343); format: functional;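 also: transfected cells were stimulated with diluted bursicon conditioned medium after compound addition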
[10] = viability loss in HEK293 cells – cell-based, plate reader, cherry-picked samples, cytotoxicity control, dose response (AID 743446); format: functional
[11] = biological target: T3, Protein skinhead-1 (Caenorhabditis elegans, UniProt P34707); format: functional
T3 sequence (P34707 whole entry): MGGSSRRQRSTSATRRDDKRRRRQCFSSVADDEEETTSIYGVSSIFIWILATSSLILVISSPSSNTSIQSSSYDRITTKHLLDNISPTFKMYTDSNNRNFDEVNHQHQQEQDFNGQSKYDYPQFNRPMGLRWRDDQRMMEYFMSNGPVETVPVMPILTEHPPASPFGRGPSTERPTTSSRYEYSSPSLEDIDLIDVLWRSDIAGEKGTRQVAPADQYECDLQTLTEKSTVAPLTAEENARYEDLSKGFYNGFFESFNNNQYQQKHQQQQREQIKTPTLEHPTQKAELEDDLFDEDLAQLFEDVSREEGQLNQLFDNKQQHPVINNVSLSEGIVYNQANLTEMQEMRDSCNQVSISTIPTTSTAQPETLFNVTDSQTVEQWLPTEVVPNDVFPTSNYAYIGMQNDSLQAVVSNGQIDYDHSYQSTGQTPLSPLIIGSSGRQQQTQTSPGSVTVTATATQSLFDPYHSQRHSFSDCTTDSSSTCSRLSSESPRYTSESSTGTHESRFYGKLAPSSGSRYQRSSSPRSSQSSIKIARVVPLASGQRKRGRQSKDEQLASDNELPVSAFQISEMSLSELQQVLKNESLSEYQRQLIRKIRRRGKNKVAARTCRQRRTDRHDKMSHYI

[12] = blockade of melanocortin 4 receptor signaling – cell-based, plate reader, cherry pick, counter-screen for LGR2 antagonist project, dose response (AID 743444); format: functional;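 also: transfected HEK 293 cells stimulated with alpha-MSH peptide; potency of inhibitors of the alpha-MSH evoked signal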
[13] = biological target: Prothrombin (Homo sapiens, UniProt P00734); experiment: Thrombin 1536 HTS Dose Response Confirmation. [Related pubchem assays: 1046 (Thrombin 1536 HTS; hits were confirmed in this assay)]; format: functional
[14] = HIV-1 Vif–A3G interaction blockers – biochemical, TR-FRET, GST-Vif 1-94, biotin-A3G peptide, dose response retest, primary screen (AID 1117319); format: functional;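 also: TR-FRET signal of purified GST-Vif binding a biotinylated A3G peptide; inhibitors lower the FRET signal by blocking Vif and A3G binding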
[15] = biological target: T4, Estrogen receptor (Homo sapiens, UniProt P03372);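 also: potency for inhibiting coactivator peptide recruitment to the receptor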
T4 sequence (P03372 whole entry): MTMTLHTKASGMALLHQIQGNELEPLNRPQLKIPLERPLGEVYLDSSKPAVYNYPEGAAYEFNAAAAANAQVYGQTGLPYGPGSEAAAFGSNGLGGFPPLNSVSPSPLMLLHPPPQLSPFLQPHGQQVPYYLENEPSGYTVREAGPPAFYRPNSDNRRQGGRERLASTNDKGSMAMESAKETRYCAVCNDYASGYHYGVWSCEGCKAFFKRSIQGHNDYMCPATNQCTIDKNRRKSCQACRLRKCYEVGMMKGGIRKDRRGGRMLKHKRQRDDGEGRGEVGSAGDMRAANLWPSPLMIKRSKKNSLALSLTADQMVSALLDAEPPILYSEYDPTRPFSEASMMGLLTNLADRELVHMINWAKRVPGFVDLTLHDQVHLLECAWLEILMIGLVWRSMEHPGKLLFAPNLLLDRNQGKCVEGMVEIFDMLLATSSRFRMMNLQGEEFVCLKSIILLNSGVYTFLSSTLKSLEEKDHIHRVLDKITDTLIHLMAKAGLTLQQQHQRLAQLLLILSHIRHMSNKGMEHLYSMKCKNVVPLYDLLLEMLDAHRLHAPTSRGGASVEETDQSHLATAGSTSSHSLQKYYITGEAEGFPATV

[16] = biological target: T5, Estrogen receptor beta (Homo sapiens, UniProt Q92731);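 also: recombinant ER-beta bound to coactivator SRC1 peptide in presence of estradiol agonist; inhibitors block coactivator peptide binding and lower the FRET signal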
[17] = biological target: T5, Estrogen receptor beta; experiment: blockers of SRC-3 recruitment to ERβ – biochemical, ELISA, streptavidin-HRP readout, orthogonal assay, confirmation (AID 1060)
[18] = biological target: T6, Carboxy-terminal domain RNA polymerase II polypeptide A small phosphatase 1 (Homo sapiens, UniProt Q9GZU7); experiment: CTDSP1 inhibitors, concentration-response, biochemical, absorbance readout, ultra-high-throughput screen actives (AID 540297); format: functional
T6 sequence (Q9GZU7 whole entry): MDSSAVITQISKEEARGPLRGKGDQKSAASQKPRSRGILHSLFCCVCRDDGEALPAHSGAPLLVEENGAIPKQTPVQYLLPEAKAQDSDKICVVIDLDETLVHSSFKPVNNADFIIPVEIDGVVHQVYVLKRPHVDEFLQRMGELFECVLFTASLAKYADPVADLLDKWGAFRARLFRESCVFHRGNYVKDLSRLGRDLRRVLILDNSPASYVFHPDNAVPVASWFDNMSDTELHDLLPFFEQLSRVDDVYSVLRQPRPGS

[19] = biological target: Luciferin 4-monooxygenase (Photinus pyralis, UniProt P08659); experiment: inhibition of purified Photinus pyralis luciferase – biochemical, luminescence, dose response (AID 1891)
[20] = Luminescence Cell-Based Dose Confirmation HTS to Identify Inhibitors of Platelet Dense Granule Release. [Related pubchem assays: 1663 (Primary HTS), 1678 (Summary of Project)]; format: functional
[21] = Trypanosoma cruzi growth suppression in host cells – NIH3T3 host cells, beta-gal luminescence, confirmation (AID 2044); format: functional, cell-based;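 also: intracellular parasites grown in NIH/3T3 mouse fibroblasts as host cells; luminescent beta-galactosidase reporter signal from transgenic T. cruzi replicating inside host cells; inhibitors lower the luminescence signal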
[22] = NIH3T3 cell viability loss – ATP luminescence, mouse fibroblasts, counter-screen, dose response (AID 2010); format: functional, cell-based;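 also: cells exposed to compound for about 90 hours before reading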
[23] = Luminescence Cell-Based Dose Retest to Confirm Inhibitors of Cancer Stem Cells. [Related pubchem assays (depositor defined):AID2717, AID2721]; format: functional; settings: Homo sapiens
[24] = biological target: T7, Small ubiquitin-related modifier 1 (Homo sapiens, UniProt P63165); experiment: SUMO1 protein interaction blockers, potency – biochemical, fluorescence polarization, uHTS hits, dose response (AID 624382); format: functional; settings: read-out: IC50_Mean
[25] = biological target: T7, Small ubiquitin-related modifier 1; experiment: SUMO1 protein-protein binding blockers, potency – biochemical, FRET, dose response (AID 624383); format: functional; settings: read-out: IC50_Mean
[26] = biological target: Kallikrein-7 (Homo sapiens, UniProt P49862); experiment: Fluorescence Intensity-based biochemical primary high throughput dose response assay to identify activators of kallikrein-7 (K7) zymogen.
[27] = cells
[28] = system: H4; experiment: Luminescence Cell-Based Dose Response HTS to Identify Activators of 5'UTR Stem-Loop Driven Prion Protein mRNA Translation in H4 Neuroglioblastoma Cells. [Related pubchem assays: 1829 (Project Summary), 1814 (Primary HTS)]; format: functional; settings: Homo sapiens
[29] = biological target: T8, Low molecular weight phosphotyrosine protein phosphatase (Homo sapiens, UniProt P24666); format: functional; settings: read-out: IC50_Mean
T8 sequence (P24666 whole entry): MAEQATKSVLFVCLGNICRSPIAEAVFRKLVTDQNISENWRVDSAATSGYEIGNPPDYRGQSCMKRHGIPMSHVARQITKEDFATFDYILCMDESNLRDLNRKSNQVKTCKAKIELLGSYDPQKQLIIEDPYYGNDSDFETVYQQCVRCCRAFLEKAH

[30] = biological target: T8, Low molecular weight phosphotyrosine protein phosphatase; format: functional; settings: read-out: IC50_Mean; remark: listed apart in the source

T5 sequence (Q92731 whole entry): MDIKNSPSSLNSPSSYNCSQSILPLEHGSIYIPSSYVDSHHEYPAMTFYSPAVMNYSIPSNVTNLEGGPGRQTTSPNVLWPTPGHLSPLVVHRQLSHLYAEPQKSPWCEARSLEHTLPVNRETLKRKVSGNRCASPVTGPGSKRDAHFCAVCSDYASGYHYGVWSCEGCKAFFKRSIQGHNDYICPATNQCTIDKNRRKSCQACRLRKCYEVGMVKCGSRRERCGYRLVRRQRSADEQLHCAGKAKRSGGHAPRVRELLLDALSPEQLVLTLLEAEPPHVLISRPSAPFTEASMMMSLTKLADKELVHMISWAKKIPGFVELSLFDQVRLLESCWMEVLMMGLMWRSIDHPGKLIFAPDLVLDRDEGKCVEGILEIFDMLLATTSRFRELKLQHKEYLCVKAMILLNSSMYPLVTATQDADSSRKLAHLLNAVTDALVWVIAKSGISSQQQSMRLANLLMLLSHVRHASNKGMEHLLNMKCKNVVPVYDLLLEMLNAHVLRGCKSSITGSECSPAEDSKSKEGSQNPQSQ
T7 sequence (P63165 whole entry): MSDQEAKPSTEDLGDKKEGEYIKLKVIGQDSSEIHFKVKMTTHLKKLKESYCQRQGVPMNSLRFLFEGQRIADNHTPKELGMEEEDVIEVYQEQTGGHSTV
Induced myeloid leukemia cell differentiation protein Mcl-1, sequence (Q07820 whole entry): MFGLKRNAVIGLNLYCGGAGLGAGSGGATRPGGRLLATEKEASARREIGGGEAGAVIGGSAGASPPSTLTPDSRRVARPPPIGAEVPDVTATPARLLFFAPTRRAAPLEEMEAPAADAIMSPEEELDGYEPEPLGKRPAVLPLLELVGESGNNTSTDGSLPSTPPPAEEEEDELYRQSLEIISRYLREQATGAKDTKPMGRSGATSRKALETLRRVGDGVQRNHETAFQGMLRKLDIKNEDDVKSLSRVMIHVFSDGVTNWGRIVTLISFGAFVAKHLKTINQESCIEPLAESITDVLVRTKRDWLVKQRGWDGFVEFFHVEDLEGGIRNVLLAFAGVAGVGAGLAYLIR
Luciferin 4-monooxygenase, sequence (P08659 whole entry): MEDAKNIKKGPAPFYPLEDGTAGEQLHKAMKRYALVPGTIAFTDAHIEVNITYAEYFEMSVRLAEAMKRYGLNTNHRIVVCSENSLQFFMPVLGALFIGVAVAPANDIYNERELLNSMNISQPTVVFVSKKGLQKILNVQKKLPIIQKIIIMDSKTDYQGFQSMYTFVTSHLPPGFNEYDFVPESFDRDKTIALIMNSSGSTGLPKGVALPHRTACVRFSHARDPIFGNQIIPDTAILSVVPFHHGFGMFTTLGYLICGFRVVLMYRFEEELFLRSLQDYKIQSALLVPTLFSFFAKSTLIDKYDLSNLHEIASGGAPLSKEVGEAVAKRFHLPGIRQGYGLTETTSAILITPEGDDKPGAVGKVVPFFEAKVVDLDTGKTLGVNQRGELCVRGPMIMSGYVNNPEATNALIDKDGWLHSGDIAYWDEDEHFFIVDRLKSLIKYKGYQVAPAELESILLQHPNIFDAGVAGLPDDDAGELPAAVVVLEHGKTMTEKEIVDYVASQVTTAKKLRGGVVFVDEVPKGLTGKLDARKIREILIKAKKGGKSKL
Kallikrein-7, sequence (P49862 whole entry): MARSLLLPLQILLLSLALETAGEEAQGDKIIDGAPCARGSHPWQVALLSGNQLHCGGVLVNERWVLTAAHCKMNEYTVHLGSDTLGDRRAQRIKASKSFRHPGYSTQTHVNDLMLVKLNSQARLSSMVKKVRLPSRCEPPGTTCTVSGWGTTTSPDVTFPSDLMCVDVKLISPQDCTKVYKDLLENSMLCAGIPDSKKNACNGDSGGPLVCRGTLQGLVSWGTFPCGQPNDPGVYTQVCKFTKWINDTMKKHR

## CC1=NN2C(=N)/C(=C\c3ccc(SCc4ccccc4)o3)C(=O)N=C2S1
[1]
  IC50: > 50 µM (not active)

## OC[C@H]1Nc2ccc(C#Cc3cccnc3)cc2[C@H]2NCC[C@H]21
[2]
  AC50: 8.84 µM (active)
[3]
  AC50: 1.08 µM (active)
[4]
  AC50: 7.59 µM (active)
[5]
  AC50: 11.2 µM (active)

## O=C1CC(N2CCN(S(=O)(=O)c3ccccc3)CC2)C(=O)N1c1ccccc1 (configuration not stated)
[6]
  IC50: 9.4 µM (not active)

## COCC#Cc1ccc(CC[C@H]2O[C@H]3CC[C@H](CO)O[C@H]3C[C@@H]2n2cc(C3CC3)nn2)cc1
[2]
  AC50: 3.37 µM (active)
[3]
  AC50: 2.33 µM (active)
[4]
  AC50: 2.15 µM (active)
[5]
  AC50: 3.76 µM (active)

## COc1cc2c(cc1OC)CN(c1ccc([N+](=O)[O-])c(C(F)(F)F)c1)CC2
[7]
  EC50: 43.1 µM (active)
[8]
  AC50: > 52 µM (inactive)
[9]
  AC50: 29.6 µM (active)
[10]
  AC50: > 52 µM (inactive)

## Clc1ccc(-c2cc(-c3ccccn3)on2)c(Cl)c1
[11]
  IC50: > 100 µM (inactive)
[8]
  AC50: > 52 µM (inactive)
[9]
  AC50: 3.73 µM (active)
[12]
  AC50: 7.08 µM (active)
[10]
  AC50: > 52 µM (inactive)

## CCOC(=O)CSc1nnc(CNC(=O)c2ccc(S(=O)(=O)N3CCCC3)cc2)n1C
[13]
  IC50: > 50 µM (not active)

## CN1C(=O)CC(N2CCN(C(=O)c3ccccc3)CC2)C1=O (configuration not stated)
[14]
  IC50: > 100 µM (active)

## Cc1cc(=O)[nH]c(SCC(=O)NCC2CCCO2)n1 (configuration not stated)
[13]
  IC50: > 50 µM (not active)

## Cc1ccc(C)n1-c1ccc(-c2nnco2)cc1
[13]
  IC50: > 50 µM (not active)

## Cc1ccc(S(=O)(=O)N2CCN(Cc3nc(O)c4c(C)c(C)sc4n3)CC2)cc1
[14]
  IC50: > 100 µM (active)

## CC1CCc2c(sc(NC(=O)c3ccc(Cn4cc([N+](=O)[O-])cn4)o3)c2C#N)C1 (configuration not stated)
[15]
  IC50: 8.35 µM (active)
[16]
  IC50: 2.32 µM (active)
[17]
  IC50: 11.1 µM (not active)
[18]
  IC50: 4.29 µM (active)

## O=C(Nc1ccc2c(c1)OCO2)c1cc(-c2ccc(O)cc2)on1
[19]
  EC50: > 112 µM (not active)
[20]
  EC50: > 112 µM (not active)
[21]
  EC50: < 0.1 µM (active)
[22]
  EC50: 6.74 µM (active)
[23]
  AC50: 0.356 µM (active)
[24]
  IC50: > 66.6 µM (inactive)
[25]
  IC50: 11.5 µM (active)
[26]
  EC50: 62.9 µM (inactive)
[27]
  EC50: > 10 µM (not active)

## CC[n+]1ccccc1/C=C1\Sc2ccc(C)cc2N1C
[21]
  EC50: < 0.1 µM (active)
[22]
  EC50: > 60 µM (not active)
[27]
  EC50: 0.022 µM (active)

## C=CCn1c(COc2ccccc2F)nnc1SCC(=O)NC(=O)NCc1ccco1
[16]
  IC50: 3.27 µM (active)
[17]
  IC50: > 50 µM (not active)
[18]
  IC50: 12.2 µM (active)

## O=c1c(Cl)c(N/N=C/c2ccc(Cl)cc2)cnn1-c1ccccc1
[28]
  EC50: > 120 µM (not active)
[6]
  IC50: 1.93 µM (active)
[29]
  IC50: > 80 µM (inactive)
[30]
  IC50: 35 µM (inactive)
